Patent US11578343B2, “CAS9 proteins including ligand-dependent inteins” (President and Fellows of Harvard College, priority 2014, dated 2023)

Columns and labels:
Format in all cases: cell-based, human
VEGF Off 4 = test: High-throughput DNA sequencing of genome modifications; settings: 500 ng Cas9 plasmid; for Mod. Freq (indels/total sequences), VEGF Off 4: Table 4; for Mod Freq (indels/total sequences), VEGF Off 4: +4-HT, Table 6
Method: (§1) We assayed these Cas9:sgRNA combinations in human cells for their ability to modify the three on-target loci as well as 11 known off-target genomic sites (Table 3)^4,5,10,13. Cells were treated with or without 1 μM 4-HT during transfection, and after 12 h the media was replaced with fresh media lacking 4-HT. […] Genomic DNA was isolated 60 h post-transfection and analyzed by high-throughput DNA sequencing
(§2) High-throughput DNA sequencing of genome modifications. HEK293-GFP stable cells were transfected with plasmids expressing Cas9 (500 ng) and sgRNA (125 ng) as described above. […] 4-HT (1 μM final), where appropriate, was added during transfection. 12 h after transfection, the media was replaced with full serum media without 4-HT. Genomic DNA was isolated and pooled from three biological replicates 60 h after transfection using a previously reported^11 protocol with a DNAdvance Kit (Agencourt). 150 ng or 200 ng of genomic DNA was used as a template to amplify by PCR the on-target and off-target genomic sites with flanking HTS primer pairs described previously^11. PCR products were purified using RapidTips (Diffinity Genomics) and quantified using the PicoGreen dsDNA Assay Kit (Invitrogen). Purified DNA was PCR amplified with primers containing sequencing adaptors, purified with the MinElute PCR Purification Kit (Qiagen) and AMPure XP PCR Purification (Agencourt). Samples were sequenced on a MiSeq high-throughput DNA sequencer (Illumina), and sequencing data was analyzed as described previously^4.
(§3) Sensitivity limit of off-target cleavage assays. We used paired end sequencing to identify indels caused by genomic on- and off-target cleavage. […] A 1 ng sample of human gDNA represents only ˜330 unique genomes, and thus only ˜330 unique copies of each genomic site are present. PCR amplification for each genomic target was performed on a total of 150 ng or 200 ng of input gDNA, which provides amplicons derived from at most 50,000 or 65,000 unique gDNA copies, respectively. Therefore, the high-throughput sequencing assay cannot detect rare genome modification events that occur at a frequency of less than approximately 1 in 50,000 (0.002%). When comparing between two conditions, such as wt Cas9 vs. intein-Cas9, this threshold becomes approximately 10 in 50,000 (0.02%) when using the Fisher exact test and a conservative multiple comparison correction (Bonferroni with 14 samples). See also Minoche, A. E., Dohm, J. C., & Himmelbauer, H. Evaluation of genomic high-throughput sequencing data generated on Illumina HiSeq and Genome Analyzer systems. Genome Biology 12, R112 (2011).

VEGF On = test: as above; settings: 500 ng Cas9 plasmid; for Mod. Freq (indels/total sequences), VEGF On: Table 4; for Mod Freq (indels/total sequences), VEGF On: +4-HT, Table 6
Method: as §1, §2, §3

CLTA Off 3 = test: as above; settings: 500 ng Cas9 plasmid; for Mod. Freq (indels/total sequences), CLTA Off 3: Table 4; for Mod Freq (indels/total sequences), CLTA Off 3: +4-HT, Table 6
Method: as §1, §2, §3

EMX Off 1 = test: as above; settings: 500 ng Cas9 plasmid; for Mod. Freq (indels/total sequences), EMX Off 1: Table 4; for Mod Freq (indels/total sequences), EMX Off 1: +4-HT, Table 6
Method: as §1, §2, §3

CLTA Off 2 = test: as above; settings: 500 ng Cas9 plasmid; for Mod. Freq (indels/total sequences), CLTA Off 2: Table 4; for Mod Freq (indels/total sequences), CLTA Off 2: +4-HT, Table 6
Method: as §1, §2, §3

genomic EGFP locus = test: Genomic EGFP disruption in HEK293-GFP stable cells (loss of GFP by flow cytometry); settings: for Loss of GFP expression / nuclease activity, in words: with or without 1 μM 4-HT, FIG. 3c
Method: HEK293-GFP stable cells were transfected with the Cas9 expression plasmid, a gRNA (targeting Emerald GFP; Guilinger et al., Nature Biotechnology (2014)), and iRFP670 (transfection control), using Lipofectamine 2000. Twelve hours after transfection, media, either containing 4-HT (1 μM) or without 4-HT, was added.
Five days after transfection, cells were trypsinized and analyzed on a flow cytometer. Cells lacking GFP indicated genome modification. Cas9 variants that induced minimal genome modification in the absence of 4-HT but induce significant genome modification in the presence of 4-HT were deemed small-molecule-regulated variants in this Example.
Additionally, a time course was performed in which incubation with 4-HT was limited to 2, 4, 8, 12 or 24 hours, after which point the media was replaced.
We genetically inserted the 4-HT-dependent intein at each of fifteen positions in Cas9 (Cys80, Ala127, Thr146, Ser219, Thr333, Thr519, Cys574, Thr622, Ser701, Ala728, Thr995, Ser1006, Ser1154, Ser1159, and Ser1274), chosen to distribute the location of the intein across the structural domains of Cas9^23 (FIG. 3b and Example 1). Because intein splicing leaves behind a single Cys residue, the intein was inserted in place of one Cas9 amino acid in each of the 15 candidate constructs. In addition to replacing natural Cys amino acids, we also favored replacing Ala, Ser, or Thr residues to minimize the likelihood that the resulting Cys point mutation resulting from protein splicing would disrupt Cas9 activity. The 15 intein-Cas9 candidates were expressed in HEK293-GFP cells together with a sgRNA that targets the genomic EGFP locus in these cells. Twelve hours post-transfection, cells were treated with or without 1 μM 4-HT. Five days post-transfection, cells were analyzed on a flow cytometer for loss of GFP expression from Cas9-mediated EGFP cleavage and subsequent non-homologous end joining.
Modification of genomic GFP. HEK293-GFP stable cells (GenTarget), which constitutively express Emerald GFP, served as the reporter cell line. Cells were maintained in “full serum media”: Dulbecco's Modified Eagle's Media plus GlutaMax (Life Technologies) with 10% (vol/vol) FBS and penicillin/streptomycin (1×, Amresco). 5×10^4 cells were plated on 48-well collagen-coated Biocoat plates (Becton Dickinson). 16-18 h after plating, cells were transfected with Lipofectamine 2000 (Life Technologies) according to the manufacturer's protocol. Briefly, 1.5 μL of Lipofectamine 2000 was used to transfect 650 ng of total plasmid: 500 ng Cas9 expression plasmid, 125 ng sgRNA expression plasmid, and 25 ng near-infrared iRFP670 expressing plasmid (Addgene plasmid 45457)^26. 12 h after transfection, the media was replaced with full serum media, with or without 4-HT (1 μM, Sigma-Aldrich T176). The media was replaced again 3-4 days after transfection. Five days after transfection, cells were trypsinized and resuspended in full serum media and analyzed on a C6 flow cytometer (Accuri) with a 488-nm laser excitation and 520-nm filter with a 20-nm band pass. Transfections and flow cytometry measurements were performed in triplicate.

[1] = +4-HT 2 hrs, then media replaced, Table 2
[2] = +4-HT 4 hrs, then media replaced, Table 2
[3] = +4-HT 8 hrs, then media replaced, Table 2
[4] = +4-HT 12 hrs, then media replaced, Table 2
[5] = +4-HT 24 hrs, then media replaced, Table 2
[6] = +4-HT (1 μM, added 12 h after transfection), five days after transfection, Table 1
[7] = −4-HT, five days after transfection, Table 1

| Substance | Mod. Freq (indels/total sequences), VEGF Off 4 (VEGF Off 4; +4-HT (1 μM, 12 h)) [%] | Mod Freq (indels/total sequences), VEGF Off 4 (VEGF Off 4) [%] | Mod. Freq (indels/total sequences), VEGF Off 4 (VEGF Off 4; −4-HT) [%] | Mod. Freq (indels/total sequences), VEGF On (VEGF On; +4-HT (1 μM, 12 h)) [%] | Mod Freq (indels/total sequences), VEGF On (VEGF On) [%] | Mod. Freq (indels/total sequences), VEGF On (VEGF On; −4-HT) [%] | Mod. Freq (indels/total sequences), CLTA Off 3 (CLTA Off 3; +4-HT (1 μM, 12 h)) [%] | Mod Freq (indels/total sequences), CLTA Off 3 (CLTA Off 3) [%] | Mod. Freq (indels/total sequences), CLTA Off 3 (CLTA Off 3; −4-HT) [%] | Mod. Freq (indels/total sequences), EMX Off 1 (EMX Off 1; +4-HT (1 μM, 12 h)) [%] | Mod Freq (indels/total sequences), EMX Off 1 (EMX Off 1) [%] | Mod. Freq (indels/total sequences), EMX Off 1 (EMX Off 1; −4-HT) [%] | Mod. Freq (indels/total sequences), CLTA Off 2 (CLTA Off 2; +4-HT (1 μM, 12 h)) [%] | Mod Freq (indels/total sequences), CLTA Off 2 (CLTA Off 2) [%] | Mod. Freq (indels/total sequences), CLTA Off 2 (CLTA Off 2; −4-HT) [%] | Cells without GFP (%) (genomic EGFP locus; [1]) | Cells without GFP (%) (genomic EGFP locus; [2]) | Cells without GFP (%) (genomic EGFP locus; [3]) | Cells without GFP (%) (genomic EGFP locus; [4]) | Cells without GFP (%) (genomic EGFP locus; [5]) | also measured |
| --- | --- | --- | --- | --- | --- | --- | --- | --- | --- | --- | --- | --- | --- | --- | --- | --- | --- | --- | --- | --- | --- |
| intein(Ser219)-Cas9: Cas9 with 37R3-2 intein replacing Ser219 (SEQ ID NO: 30) | 3.89 | 2.03 | 0.10 | 3.66 | 3.17 | 1.05 | 0.03 | 0.01 | 0.00 | 0.42 | 0.20 | 0.01 | 0.00 | 0.00 | 0.00 | 17.25 | 17.07 | 15.12 | 15.28 | 24.39 | Cells without GFP (%) (genomic EGFP locus; [6]): 23.98%; Loss of GFP expression / nuclease activity, in words (genomic EGFP locus; listed as 5219): 4-HT-dependent loss of GFP expression and high activity in the presence of 4-HT and low activity in the absence of 4-HT; Cells without GFP (%) (genomic EGFP locus; [7]): 6.53%; Cells without GFP (%) (genomic EGFP locus; −4-HT, time course, Table 2): 3.92% |
| intein(Cys574)-Cas9: Cas9 with 37R3-2 intein replacing Cys574 (SEQ ID NO: 33) | 1.40 | 0.91 | 0.07 | 3.03 | 2.31 | 0.85 | 0.01 | 0.01 | 0.00 | 0.27 | 0.17 | 0.01 | 0.02 | 0.00 | 0.00 | 14.57 | 13.11 | 16.91 | 16.10 | 14.52 | Cells without GFP (%) (genomic EGFP locus; [6]): 21.44%; Loss of GFP expression / nuclease activity, in words (genomic EGFP locus; listed as C574): 4-HT-dependent loss of GFP expression and high activity in the presence of 4-HT and low activity in the absence of 4-HT; Cells without GFP (%) (genomic EGFP locus; [7]): 5.74%; Cells without GFP (%) (genomic EGFP locus; −4-HT, time course, Table 2): 2.91% |
